Experimental data from ChEMBL document CHEMBL3994662, “In vivo instability of platensimycin and platencin: Synthesis and biological evaluation of urea- and carbamate-platensimycin” (Bioorg Med Chem, 2017).
Values after ≈ are worked out from the molar mass of the structure shown.

Legend:
[1] = Apparent permeability by PAMPA; format: physicochemical
[2] = Elimination half life in C57Bl/6 mouse at 10 mg/kg, po administered as single dose via gavage by LC-MS/MS analysis; format: ADME, organism-based; conditions: in vivo, read-out: beta t1/2 (converted)
[3] = tested on: Kidney; assay: Drug uptake in C57Bl/6 mouse kidney at 10 mg/kg, iv administered as single dose measured after 60 mins by LC-MS/MS analysis; format: ADME, organism-based; conditions: in vivo, 1 h
[4] = Oral bioavailability in C57Bl/6 mouse at 10 mg/kg administered as single dose via gavage by LC-MS/MS analysis; format: ADME, organism-based; conditions: in vivo
[5] = In vivo stability in C57Bl/6 mouse urine assessed as compound hydrolysis at 10 mg/kg, iv administered as single dose measured after 60 mins by LC-MS/MS analysis; format: ADME, organism-based; conditions: 1 h
[6] = tested on: Micrococcus luteus; assay: Antibacterial activity against Micrococcus luteus ATCC 9431 after 18 hrs by broth dilution method; format: functional; conditions: ATCC 9431, 18 h
[7] = Drug metabolism in mouse hepatic microsomes assessed as glucuronidation of carboxylic acid at 1 uM up to 60 mins in absence of NADPH by LC-MS/MS analysis; format: ADME, Liver, Microsome; conditions: 1 h
[8] = Drug uptake in C57Bl/6 mouse muscle at 10 mg/kg, iv administered as single dose measured after 60 mins by LC-MS/MS analysis; format: ADME, organism-based, Muscle tissue; conditions: in vivo, 1 h
[9] = Observed clearance in C57Bl/6 mouse at 3 mg/kg, iv administered as single dose by LC-MS/MS analysis; format: ADME, organism-based; conditions: in vivo
[10] = Plasma concentration in C57Bl/6 mouse at 3 mg/kg, iv administered as single dose measured after 2 hrs by LC-MS/MS analysis; format: ADME, organism-based
[11] = In vivo stability in C57Bl/6 mouse adipose tissue assessed as compound hydrolysis at 10 mg/kg, iv administered as single dose measured after 60 mins by LC-MS/MS analysis; format: ADME, organism-based; conditions: 1 h
[12] = tested on: Brain; assay: In vivo stability in C57Bl/6 mouse brain assessed as compound hydrolysis at 10 mg/kg, iv administered as single dose measured after 60 mins by LC-MS/MS analysis; format: ADME, organism-based; conditions: 1 h
[13] = Volume of distribution in C57Bl/6 mouse at 3 mg/kg, iv administered as single dose by LC-MS/MS analysis; format: ADME, organism-based; conditions: in vivo
[14] = Ratio of drug level in C57Bl/6 mouse muscle to plasma at 10 mg/kg, iv administered as single dose measured after 60 mins by LC-MS/MS analysis; format: ADME, organism-based, Muscle tissue/plasma
[15] = In vivo stability in C57Bl/6 mouse muscle assessed as compound hydrolysis at 10 mg/kg, iv administered as single dose measured after 60 mins by LC-MS/MS analysis; format: ADME, organism-based, Muscle tissue; conditions: 1 h
[16] = In vivo stability in C57Bl/6 mouse urine assessed as compound hydrolysis by measuring platensic acid level at 10 mg/kg, iv administered as single dose measured after 60 mins by LC-MS/MS analysis relative to platensimycin; format: ADME, organism-based; conditions: 1 h
[17] = Ratio of drug level in C57Bl/6 mouse lung to plasma at 10 mg/kg, iv administered as single dose measured after 60 mins by LC-MS/MS analysis; format: ADME, organism-based
[18] = Intrinsic clearance in mouse hepatic microsomes at 1 uM up to 60 mins by LC-MS/MS analysis; format: ADME, Microsome; conditions: liver microsomes, read-out: CLH
[19] = Ratio of drug level in C57Bl/6 mouse liver to plasma at 10 mg/kg, iv administered as single dose measured after 60 mins by LC-MS/MS analysis; format: ADME, organism-based
[20] = tested on: Kidney; assay: In vivo stability in C57Bl/6 mouse kidney assessed as compound hydrolysis at 10 mg/kg, iv administered as single dose measured after 60 mins by LC-MS/MS analysis; format: ADME, organism-based; conditions: 1 h
[21] = Cmax in C57Bl/6 mouse at 3 mg/kg, iv administered as single dose by LC-MS/MS analysis; format: ADME, organism-based; parameters: dose 3 mg/kg, route intravenous; conditions: in vivo
[22] = tested on: Liver; assay: In vivo stability in C57Bl/6 mouse liver assessed as compound hydrolysis at 10 mg/kg, iv administered as single dose measured after 60 mins by LC-MS/MS analysis; format: ADME, organism-based; conditions: 1 h
[23] = Drug level in C57Bl/6 mouse urine at 10 mg/kg, iv administered as single dose measured after 60 mins by LC-MS/MS analysis; format: ADME, organism-based; conditions: mouse, in vivo, 1 h
[24] = tested on: Lung; assay: Drug uptake in C57Bl/6 mouse lung at 10 mg/kg, iv administered as single dose measured after 60 mins by LC-MS/MS analysis; format: ADME, organism-based; conditions: in vivo, 1 h
[25] = tested on: Plasma; assay: In vivo stability in C57Bl/6 mouse plasma assessed as compound hydrolysis by measuring platensic acid level at 10 mg/kg, iv administered as single dose measured after 60 mins by LC-MS/MS analysis relative to platensimycin; format: ADME, organism-based; conditions: 1 h
[26] = Drug metabolism in mouse hepatic microsomes assessed as amide hydrolysis-mediated platensic acid formation at 1 uM up to 60 mins in absence of NADPH by LC-MS/MS analysis; format: ADME, Liver, Microsome; conditions: 1 h
[27] = tested on: Mus musculus; assay: AUC (0 to 8 hrs) in C57Bl/6 mouse at 10 mg/kg, po administered as single dose via gavage by LC-MS/MS analysis; format: ADME, organism-based; parameters: time < 8 hr, dose 10 mg/kg, route oral; conditions: in vivo
[28] = Ratio of drug level in C57Bl/6 mouse kidney to plasma at 10 mg/kg, iv administered as single dose measured after 60 mins by LC-MS/MS analysis; format: ADME, organism-based
[29] = Drug metabolism in mouse hepatic microsomes assessed as hydroxylation at 1 uM up to 60 mins in absence of NADPH by LC-MS/MS analysis; format: ADME, Liver, Microsome; conditions: 1 h
[30] = tested on: Lung; assay: In vivo stability in C57Bl/6 mouse lung assessed as compound hydrolysis at 10 mg/kg, iv administered as single dose measured after 60 mins by LC-MS/MS analysis; format: ADME, organism-based; conditions: 1 h
[31] = Drug metabolism in mouse hepatic microsomes assessed as amide hydrolysis-mediated platensic acid formation at 1 uM up to 60 mins in presence of NADPH by LC-MS/MS analysis; format: ADME, Liver, Microsome; conditions: 1 h
[32] = Cmax in C57Bl/6 mouse at 10 mg/kg, po administered as single dose via gavage by LC-MS/MS analysis; format: ADME, organism-based; parameters: dose 10 mg/kg, route oral; conditions: in vivo
[33] = tested on: Brain; assay: Drug uptake in C57Bl/6 mouse brain at 10 mg/kg, iv administered as single dose measured after 60 mins by LC-MS/MS analysis; format: ADME, organism-based; conditions: in vivo, 1 h
[34] = tested on: Plasma; assay: In vivo stability in C57Bl/6 mouse plasma assessed as compound hydrolysis at 10 mg/kg, iv administered as single dose measured after 60 mins by LC-MS/MS analysis; format: ADME, organism-based; conditions: 1 h
[35] = tested on: Mus musculus; assay: AUC (0 to 8 hrs) in C57Bl/6 mouse at 3 mg/kg, iv administered as single dose by LC-MS/MS analysis; format: ADME, organism-based; parameters: dose 3 mg/kg, time < 8 hr, route intravenous; conditions: in vivo
[36] = tested on: Staphylococcus aureus; assay: Antibacterial activity against Staphylococcus aureus ATCC 25923 after 18 hrs by broth dilution method; format: functional; conditions: ATCC 25923, 18 h
[37] = Elimination half life in C57Bl/6 mouse at 3 mg/kg, iv administered as single dose by LC-MS/MS analysis; format: ADME, organism-based; conditions: in vivo, read-out: beta t1/2 (converted)
[38] = tested on: Liver; assay: Drug uptake in C57Bl/6 mouse liver at 10 mg/kg, iv administered as single dose measured after 60 mins by LC-MS/MS analysis; format: ADME, organism-based; conditions: in vivo, 1 h
[39] = Ratio of drug level in C57Bl/6 mouse urine to plasma at 10 mg/kg, iv administered as single dose measured after 60 mins by LC-MS/MS analysis; format: ADME, organism-based; conditions: in vivo, 1 h
[40] = Ratio of drug level in C57Bl/6 mouse adipose tissue to plasma at 10 mg/kg, iv administered as single dose measured after 60 mins by LC-MS/MS analysis; format: ADME, organism-based
[41] = tested on: Kidney; assay: In vivo stability in C57Bl/6 mouse kidney assessed as compound hydrolysis by measuring platensic acid level at 10 mg/kg, iv administered as single dose measured after 60 mins by LC-MS/MS analysis relative to platensimycin; format: ADME, organism-based; conditions: 1 h
[42] = Drug uptake in C57Bl/6 mouse adipose tissue at 10 mg/kg, iv administered as single dose measured after 60 mins by LC-MS/MS analysis; format: ADME, organism-based; conditions: in vivo, 1 h
[43] = tested on: Plasma; assay: Drug uptake in C57Bl/6 mouse plasma at 10 mg/kg, iv administered as single dose measured after 60 mins by LC-MS/MS analysis; format: ADME, organism-based; conditions: in vivo, 1 h
[44] = tested on: Liver; assay: In vivo stability in C57Bl/6 mouse liver assessed as compound hydrolysis by measuring platensic acid level at 10 mg/kg, iv administered as single dose measured after 60 mins by LC-MS/MS analysis relative to platensimycin; format: ADME, organism-based; conditions: 1 h

C[C@]12C[C@@]34C=CC(=O)[C@@](C)(CCC(=O)Nc5c(O)ccc(C(=O)O)c5O)[C@@H]3[C@H](C[C@@H]1C4)O2
Papp [1]: 1.3 ×10⁻⁷ cm/s | half-life [2]: 3.2 h | Drug uptake [3]: Active | bioavailability [4]: 4.4% | Stability [5]: Unstable | MIC [6]: 0.5 µg/mL (≈ 1.13 µM) | Drug metabolism [7]: Metabolite_Detected | Drug uptake [8]: Active | clearance [9]: 16 mL/min/kg | concentration at 2 h [10]: 10 nM | Stability [11]: Stable | Stability [12]: Stable | Vd [13]: 0.9 L/kg | Kp at 1 h [14]: 0.1 | Stability [15]: Stable | fold change (FC) [16]: 0.0005 | Kp at 1 h [17]: 0.5 | microsomal CLint at 1 µM [18]: 13.6 µL/min/mg | Kp at 1 h [19]: 6.2 | Stability [20]: Unstable | Cmax [21]: 20000 nM | Stability [22]: Unstable | Drug uptake [23]: Active | Drug uptake [24]: Active | fold change (FC) [25]: 0.1 | Drug metabolism [26]: Metabolite_Detected | AUC [27]: 1.5 µM·h | Kp at 1 h [28]: 0.5 | Drug metabolism [29]: Metabolite_Detected | Stability [30]: Stable | Drug metabolism [31]: Metabolite_Detected | Cmax [32]: 2100 nM | Drug uptake [33]: Not Active | Stability [34]: Unstable | AUC [35]: 10 µM·h | MIC [36]: 0.5 µg/mL (≈ 1.13 µM) | half-life [37]: 3.5 h | Drug uptake [38]: Active | Ratio [39]: 3790 | Kp at 1 h [40]: 0.1 | fold change (FC) [41]: 0.2 | Drug uptake [42]: Active | Drug uptake [43]: Active | fold change (FC) [44]: 0.04
